The test system of one test is Pyrenophora teres. Kind of test: Activity against net blotch of barley caused by Pyrenophora teres, protective application. Type of test: in vivo, Pyrenophora [syn. Drechslera] teres on barley. To be noted: barley seedlings, rated after 6 days. As for the experimental part: (§1) The active compounds were separately or jointly prepared as a stock solution comprising 25 mg of active compound which was made up to 10 ml using a mixture of acetone and/or DMSO and the emulsifier Uniperol® EL (wetting agent having emulsifying and dispersing action based on ethoxylated alkylphenols) in a volume ratio of solvent/emulsifier of 99 to 1. The mixture was then made up with water to 100 ml. This stock solution was diluted with the solvent/emulsifier/water mixture described to the concentration of active compounds stated below.
(§2) The visually determined percentages of infected leaf areas were converted into efficacies in % of the untreated control:
The efficacy (E) is calculated as follows using Abbot's formula: E=(1−α/β)·100 α corresponds to the fungicidal infection of the treated plants in % and β corresponds to the fungicidal infection of the untreated (control) plants in %
An efficacy of 0 means that the infection level of the treated plants corresponds to that of the untreated control plants; an efficacy of 100 means that the treated plants were not infected.
Leaves of potted barley seedlings were sprayed to runoff point with an aqueous suspension having the concentration of active compound stated below. After 5 days, the test plants were inoculated with an aqueous spore suspension of Pyrenophora [syn. Drechslera] teres, the net blotch pathogen. The test plants were then placed in a greenhouse at temperatures between 20 and 24° C. and 95 to 100% relative atmospheric humidity. After 6 days, the extent of the disease development was determined visually in % infection of the entire leaf area.

The test system of the next test is Botrytis cinerea. Kind of test: Activity against the gray mold pathogen Botrytis cinerea in the microtiter test. Type of test: cell-based. As to conditions: 1 ppm; microtiter plate, 405 nm, day 7 after inoculation. An excerpt:
For the microtiter tests, the active compounds were formulated separately as a stock solution having a concentration of 10 000 ppm in DMSO.
In the microtiter tests, the measured parameters were offset with the growth of the active-compound-free control variant and the fungus- and active-compound-free blank value, in order to determine the relative growth in % of the pathogens in the individual active compounds.
The stock solutions were mixed according to the ratio, pipetted into a microtiter plate (MTP) and diluted to the stated active compound concentration using a malt-based aqueous nutrient medium for fungi. An aqueous spore suspension of Botrytis cinerea was then added. The plates were placed in a water vapor-saturated chamber at temperatures of 18° C. Using an absorption photometer, the MTPs were measured at 405 nm on day 7 after the inoculation.

The subject of another test is Alternaria solani. Kind of test: Activity against early blight of tomato caused by Alternaria solani. The format is in vivo, Alternaria solani on tomato. As to conditions: 4 ppm; tomato cultivar Goldene Königin, sprayed 1 day before infection, rated after 5 days. As for the experimental part: as §1, §2
The efficacy (E) is calculated as follows using Abbot's formula: E=(1−α/β)·100 α corresponds to the fungicidal infection of the treated plants in % and β corresponds to the fungicidal infection of the untreated (control) plants in % […]
Leaves of potted plants of the cultivar “Goldene Königin” were sprayed to runoff point with an aqueous suspension having the concentration of active compound stated below. […] After 5 days, the disease on the untreated but infected control plants had developed to such an extent that the infection could be determined visually in %.

`CO/C=C(/C(=O)OC)c1ccccc1CO/N=C(C)/C=C/c1ccc(Cl)cc1` [enestroburin (I), methyl 2-{2-[3-(4-chlorophenyl)-1-methylallylideneaminooxymethyl]phenyl}-3-methoxyacrylate]: the “Observed activity (%)” value worked out at 56% in the test on Pyrenophora teres (63 ppm, sprayed 5 days before inoculation); 12% in the test on Botrytis cinerea; 22% with Alternaria solani.
Take `Cc1ccc(C(C)NC(=O)[C@@H](NC(=O)OC(C)C)C(C)C)cc1` (stereo partly drawn) [iprovalicarb (II-11), isopropyl [(1S)-2-methyl-1-(1-p-tolylethylcarbamoyl)propyl]carbamate]: in the test with Alternaria solani, the “Observed activity (%)” value worked out at 0%.
With “zinc ammoniate ethylenebis(dithiocarbamate) [metiram (II-4)]”, in the test on Botrytis cinerea, the “Observed activity (%)” value is 7%.
Consider “manganese ethylenebis(dithiocarbamate) (polymer) complex zinc salt [mancozeb (II-1)]”, for which the “Observed activity (%)” value with Pyrenophora teres (16 ppm, protective) stood at 0%; with Pyrenophora teres (250 ppm, protective), 22%.

For the origin of these results see patent US20080076747A1, “Fungicidal Mixtures” (BASF AKTIENGESELLSCHAFT, priority 2004, published 2008).
